Experimental data reported in ChEMBL document CHEMBL1212714, “Dentigerumycin: a bacterial mediator of an ant-fungus symbiosis” (2009).
≈ marks a conversion by molar mass, not a printed value. Calls of active or inactive are those of the source. No cut-off for these calls is given here.

Tests used:
[1] = system: Candida albicans; experiment: Antifungal activity against wild type Candida albicans at 37degC after 48 hrs by liquid culture assay; format: functional
[2] = system: Escovopsis; experiment: Antifungal activity against Escovopsis CC011120-4 assessed as growth inhibition at 5 mg/ml by plate antifungal assay; format: functional
[3] = system: Candida albicans; experiment: Antifungal activity against Candida albicans ATCC 200955 at 37degC after 48 hrs by liquid culture assay; format: functional; details: ATCC 200955, 48 h
[4] = Antifungal activity against Escovopsis at 37degC after 48 hrs by liquid culture assay; format: functional
[5] = system: ant fungal cultivar CC011120-4 (mutualistic fungus); experiment: Antifungal activity against ant fungal cultivar CC011120-4 assessed as growth inhibition at 5 mg/ml by plate antifungal assay
[6] = system: Candida albicans; experiment: Antifungal activity against Candida albicans ATCC 10231 at 37degC after 48 hrs by liquid culture assay; format: functional; details: ATCC 10231, 48 h

For CCC[C@H]1CC[C@](O)([C@](C)(O)C(=O)N[C@@H]2C(=O)N3NCCC[C@@H]3C(=O)N(O)[C@@H](C)C(=O)N3NCCC[C@@H]3C(=O)N3NC[C@@H](O)C[C@H]3C(=O)N[C@@H](C)C(=O)O[C@H]2C(C)C)O[C@@H]1CC [DENTIGERUMYCIN], the MIC [1] was 1.1 µM (≈ 0.97 µg/mL), the “growth inhibition (GI)” value [2] was “Active” and the MIC [3] was 1.1 µM (≈ 0.97 µg/mL). For the same molecule, the MIC [4] was 2.8 µM (≈ 2.47 µg/mL), the “growth inhibition (GI)” value [5] was “inactive” and the MIC [6] was 1.1 µM (≈ 0.97 µg/mL).
